Source: PubChem BioAssay (NCI)
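A five-concentration, 48-hour dose response in 96-well plates underlies each endpoint, interpolated linearly between surrounding concentrations. At the GI50, growth is halved. TGI marks complete inhibition of growth.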

Experiments:
Assay in all cases: growth of human tumour cells (NCI), 48 h
K-562 leukemia = test system: K-562 leukemia
OVCAR-5 ovarian = test system: OVCAR-5 ovarian
OVCAR-4 ovarian = test system: OVCAR-4 ovarian
HCC-2998 colon = test system: HCC-2998 colon
SN12C renal = test system: SN12C renal
SK-MEL-28 melanoma = test system: SK-MEL-28 melanoma
HL-60(TB) leukemia = test system: HL-60(TB) leukemia
CAKI-1 renal = test system: CAKI-1 renal
NCI-H522 lung = test system: NCI-H522 lung
U251 CNS = test system: U251 CNS

SMILES	GI50 (K-562 leukemia) [µM]	TGI (K-562 leukemia) [µM]	GI50 (OVCAR-5 ovarian) [µM]	TGI (OVCAR-5 ovarian) [µM]	GI50 (OVCAR-4 ovarian) [µM]	TGI (OVCAR-4 ovarian) [µM]	GI50 (HCC-2998 colon) [µM]	TGI (HCC-2998 colon) [µM]	GI50 (SN12C renal) [µM]	TGI (SN12C renal) [µM]	GI50 (SK-MEL-28 melanoma) [µM]	TGI (SK-MEL-28 melanoma) [µM]	GI50 (HL-60(TB) leukemia) [µM]	TGI (HL-60(TB) leukemia) [µM]	GI50 (CAKI-1 renal) [µM]	TGI (CAKI-1 renal) [µM]	GI50 (NCI-H522 lung) [µM]	TGI (NCI-H522 lung) [µM]	GI50 (U251 CNS) [µM]	TGI (U251 CNS) [µM]
COc1ccccc1C(=O)/C=C/c1cc2cccc(OC)c2[nH]c1=O	< 0.0125	> 89.1	0.321	2.89	0.314	8.37	0.141	1.3	0.079	2.64	1.08	6.63	0.0144	0.0583	0.0241	1.54	0.101	2.16	0.0319	1.5
C[C@@H](c1ccc2nccn2c1)n1nnc2ncc(-c3cnn(C)c3)nc21	> 100	> 100	> 100	> 100	65.1	> 100	> 100	> 100	> 100	> 100	> 100	> 100	> 100	> 100	> 100	> 100	> 100	> 100	> 100	> 100
CCCCCCC(=O)C/C(CCC(=O)N(Cc1ccccc1)Cc1ccccc1)=N\Nc1ccc([N+](=O)[O-])cc1[N+](=O)[O-]	–	58.2	–	> 100	–	> 100	–	> 100	–	> 100	–	> 100	–	> 100	–	> 100	–	> 100	–	> 100
COc1cc(C2C(Cl)C(=O)N2n2cnc3ccccc3c2=O)cc(OC)c1OC (stereo not given)	–	> 100	–	> 100	–	> 100	–	> 100	–	> 100	–	> 100	–	> 100	–	> 100	–	> 100	–	> 100
OB([O][Hg][c]1ccccc1)[O][Hg][c]1ccccc1	0.234	4.96	1.88	3.33	0.334	2.01	1.86	3.36	0.266	0.799	0.318	1.33	0.0886	0.378	0.639	2.01	0.0279	0.0752	0.507	1.89
Cc1ccc(S(=O)(=O)NC(CCC(=O)Nc2ccc(Cl)cc2)C(=O)Nc2ccc(Cl)cc2)cc1 (stereo not given)	0.0519	6.3	4.31	11.4	0.775	3.46	1.48	7.14	0.685	8.84	0.625	6.48	0.369	5.76	0.473	8.14	0.496	7.01	0.574	5.13
O=C(Nc1ccncc1)C(=O)c1cn(S(=O)(=O)c2ccc(Br)cc2)c2ccccc12	2.49	> 100	> 100	> 100	15.1	> 100	23.6	> 100	43.5	> 100	4.77	> 100	2.41	> 100	4.44	> 100	1.94	> 100	6.41	> 100
CC1=COC(=O)c2ccccc2N1	–	> 100	–	> 100	–	> 100	–	> 100	–	> 100	–	> 100	–	> 100	–	> 100	–	> 100	–	> 100
N#C/C(=C\c1c(-c2ccccc2)[nH]c2ccccc12)C(=O)c1ccc(Cl)cc1	0.336	5.32	8.58	46.9	3.68	22.8	2.11	19.5	6.91	> 78.7	3.33	41.2	0.385	3.17	1.23	> 31.2	2.89	> 30	1.11	16.2
Cc1cc2c(C)c3cc(C)c(N)cc3nc2cc1N	0.548	4.96	0.884	5.34	1.1	3.92	1.12	4.91	0.987	9.71	2.69	10.5	3	10.1	2.03	8.66	0.527	2.02	0.648	5.72
O/N=C1\CCc2cc(-c3nc(C4CCNCC4)[nH]c3-c3ccncc3)ccc21	> 25	> 25	> 25	> 25	> 25	> 25	> 25	> 25	> 25	> 25	1.5	> 21.3	> 25	> 25	> 25	> 25	> 25	> 25	> 25	> 25
O=C1C2=C(c3ccccc31)C(c1ccc(Cl)cc1)N1C(=O)CCSC1=N2 (stereo not given)	–	> 100	–	> 100	–	> 100	–	> 100	–	> 100	–	> 100	–	> 100	–	> 100	–	> 100	–	> 100
Cc1c(NC(=O)C(=O)N=NC(=O)c2ccncc2)c(O)c2ccccc2c1O	–	> 82	–	30.8	–	27.5	–	30.7	–	24.3	–	31.7	–	> 67.5	–	57	–	26.2	–	28.1
O=C(Cc1ccccc1)NN1C(=O)C(Cl)C1c1cccc(O)c1 (stereo not given)	–	34.7	–	27.5	–	40	–	36.8	–	33.4	–	34.6	–	32.8	–	34.8	–	23.2	–	24.4
O=C(Nc1n[nH]c2nc(-c3ccco3)c(Br)cc12)C1CC1	> 25	> 25	> 25	> 25	> 25	> 25	> 25	> 25	> 25	> 25	> 25	> 25	> 25	> 25	> 25	> 25	> 25	> 25	> 25	> 25
CC(Cl)(/C=C/Cl)C(Cl)/C=C/C(Cl)(CCl)CBr (stereo not given)	–	14.2	–	29.5	–	9.36	–	33.2	–	12.5	–	8.27	–	5.32	–	28.1	–	3.33	–	8.37
Cc1cc(Br)cc(C)c1NC(=O)C(=O)CC(=O)c1sc(-n2nc(-c3ccccc3)cc2-c2ccccc2)nc1C	–	> 100	–	> 100	–	> 100	–	> 100	–	> 100	–	> 100	–	> 100	–	> 100	–	> 100	–	> 100
O=C1C2CC(Cl)C(SSC3CC4C(=O)N(SC(Cl)(Cl)C(Cl)Cl)C(=O)C4CC3Cl)CC2C(=O)N1SC(Cl)(Cl)C(Cl)Cl (stereo not given)	–	5.01	–	66.3	–	4.31	–	16.4	–	5.24	–	6.18	–	1.83	–	6.7	–	1.5	–	3.75
CNC(=O)OCc1nc(SC(C)C)n(C)c1COC(=O)NC	–	> 100	–	> 100	–	> 100	–	> 100	–	> 100	–	> 100	–	> 100	–	> 100	–	> 100	–	> 100
CCOC(=O)/C(C1=N[C@H](C(=O)OCC)CS1)=C(\C)O	–	> 100	–	> 100	–	> 100	–	> 100	–	> 100	–	> 100	–	> 100	–	> 100	–	> 100	–	> 100
CCCCCCCCCCCCCCCCCCNC(=O)[C@H]1CSC(c2ccc(OC)c(F)c2)N1 (stereo not given in full)	2	11.2	3.55	> 33.4	14	> 41.3	1.98	7.02	1.52	3.39	1.42	3.52	1.96	4.65	3.98	16.9	> 29.4	> 51.6	4.48	22.9
Cc1cc(NC(=O)C2c3ccccc3C(=O)N(CC(C)C)C2c2cccs2)no1 (stereo not given)	50.9	> 100	> 100	> 100	31.3	> 100	> 100	> 100	> 100	> 100	> 100	> 100	39	> 100	25.6	> 100	52.2	> 100	84.2	> 100
Cn1cc(-c2ccc(=O)n(Cc3cccc(-c4ncc(OCCN5CCOCC5)cn4)c3)n2)cn1	99.3	> 100	> 100	> 100	33.5	> 100	> 100	> 100	> 69.4	> 100	> 89.5	> 100	74.1	> 100	> 79.7	> 100	74.8	> 100	92.1	> 100
